Results taken from ChEMBL document CHEMBL1156236, “Trypanoside, anti-tuberculosis, leishmanicidal, and cytotoxic activities of tetrahydrobenzothienopyrimidines” (Bioorg Med Chem, 2010).
pIC50: −log10 of the molar value. ≈ marks a conversion by molar mass, not a printed value. Calls of active or inactive are those of the source. No cut-off for these calls is given here.

What was measured:
Vero = test: Cytotoxicity against african green monkey Vero cells after 72 hrs by MTS assay; details: Chlorocebus sabaeus, Vero, 72 h
Trypanosoma cruzi [1] = test: Antitrypanosomal activity against Trypanosoma cruzi tulahuen C4 trypomastigotes infected in african green monkey Vero cells assessed as CPRG cleavage after 120 hrs by microplate reader; format: functional, organism-based
[2] = Selectivity index, ratio of IC50 for african green monkey Vero cells to IC50 for Trypanosoma cruzi tulahuen C4; details: Vero cells
[3] = test system: Mycobacterium tuberculosis; test: Antitubercular activity against Mycobacterium tuberculosis H37Rv ATCC 27294 after 7 days by microplate alamar blue assay; format: functional; details: H37Rv ATCC 27294, 168 h
[4] = Selectivity index, ratio of IC50 for african green monkey Vero cells to MIC for Mycobacterium tuberculosis H37Rv ATCC 27294 by microplate alamar blue assay; format: functional
[5] = Cytotoxicity against BALB/c mouse macrophages after 48 hrs by trypan blue dye exclusion method; format: cell-based; details: Macrophage
Leishmania amazonensis [6] = test: Antileishmanial activity against Leishmania amazonensis MHOM/BR/76/LTB-012 amastigotes infected BALB/c mouse macrophages after 48 hrs by MTT assay; format: functional, organism-based; details: MHOM/BR/76/LTB-012, 48 h
[7] = Selectivity index, ratio of IC50 for BALB/c mouse macrophages to IC50 for Leishmania amazonensis MHOM/BR/76/LTB-012
Leishmania amazonensis [8] = test: Antileishmanial activity against Leishmania amazonensis Lma CL1 amastigotes infected BALB/c mouse macrophages after 48 hrs by Giemsa staining method; format: functional, organism-based; details: Lma CL1, 48 h
Leishmania braziliensis = test: Antileishmanial activity against Leishmania braziliensis MHOM/PE/PER006 promastigote infected BALB/c mouse macrophages after 48 hrs by Giemsa staining method; format: functional, organism-based; details: MHOM/PE/PER006, 48 h
Leishmania peruviana = test: Antileishmanial activity against Leishmania peruviana MHOM/PE/LCA08 promastigote infected BALB/c mouse macrophages after 48 hrs by Giemsa staining method; format: functional, organism-based; details: MHOM/PE/LCA08, 48 h
Leishmania amazonensis [9] = test: (§1) Antileishmanial activity against Leishmania amazonensis LV79 MPRO/BR/72/M1841 amastigotes infected BALB/c mouse assessed as lesion diameter at 5 mg/kg/day, intralesionally administered after 1 week post infection 3 times per week for 6 weeks measured on week 4 relative to control; format: functional
Leishmania amazonensis [10] = test: (§2) Antileishmanial activity against Leishmania amazonensis LV79 MPRO/BR/72/M1841 amastigotes infected BALB/c mouse assessed as lesion diameter at 5 mg/kg/day, intralesionally administered after 1 week post infection 3 times per week for 6 weeks measured on week 7 relative to control; format: functional
Leishmania amazonensis [11] = test: as §1, with “assessed as reduction of parasite burden at 5” for “assessed as lesion diameter at 5”, “week 4 by fluorescence method relative to” for “week 4 relative to”; format: functional; set-up: scale not given: the % may be the effect or the level left
Leishmania amazonensis [12] = test: as §2, with “assessed as reduction of parasite burden at 5” for “assessed as lesion diameter at 5”, “week 7 by fluorescence method relative to” for “week 7 relative to”; format: functional; set-up: scale not given: the % may be the effect or the level left
[13] = Cytotoxicity against BALB mouse 3T3 cells; format: cell-based; details: BALB 3T3 cells
NCI-H460 = test: Cytotoxicity against human NCI-H460 cells; format: functional
DU-145 = test: Cytotoxicity against human DU145 cells; format: functional
MCF7 = test: Cytotoxicity against human MCF7 cells; format: functional
M14 = test: Cytotoxicity against human M14 cells; format: functional
HT-29 = test: Cytotoxicity against human HT-29 cells; format: functional
K562 = test: Cytotoxicity against human K562 cells; format: functional
Trypanosoma cruzi [14] = test: Antitrypanosomal activity against Trypanosoma cruzi tulahuen C4 trypomastigotes infected mouse assessed as decrease in parasite replication at 20 mg/kg/day, ip on days 6 to 11 days post infection after 6 days; format: functional, organism-based
[15] = test system: Mycobacterium tuberculosis; test: Antitubercular activity against Mycobacterium tuberculosis H37Rv ATCC 27294 after 7 days by low oxygen recovery assay; format: functional; details: H37Rv ATCC 27294, 168 h
[16] = Selectivity index, ratio of IC50 for african green monkey Vero cells to MIC for Mycobacterium tuberculosis H37Rv ATCC 27294 by low oxygen recovery assay; format: functional

Structure (SMILES)	pIC50 (Vero)	pIC50 (Trypanosoma cruzi [1])	selectivity ratio [2]	MIC [3] [µM]	Ratio IC50 [4]	pIC50 [5]	pIC50 (Leishmania amazonensis [6])	Ratio IC50 [7]	GI50 [13] [µM]	GI50 (NCI-H460) [µM]	GI50 (DU-145) [µM]	GI50 (MCF7) [µM]	GI50 (M14) [µM]	GI50 (HT-29) [µM]	GI50 (K562) [µM]	MIC [15] [µM]	other results
CCC(CC)=NNc1ncnc2sc3c(c12)CCCC3	4.68	4.68	1	160 (≈ 46.2 µg/mL)	0.7	3.79	4.72	8.5	4.8	15.2	15	15.1	20.6	38.9	11.6		pIC50 (Leishmania amazonensis [8]): 4.96; pIC50 (Leishmania braziliensis): 4.95; pIC50 (Leishmania peruviana): 5.15; Activity (Leishmania amazonensis [9]): 2.8 mm; Activity (Leishmania amazonensis [10]): 4.9 mm; Activity (Leishmania amazonensis [11]): 65%; Activity (Leishmania amazonensis [12]): 17%
Clc1ccc(/C=N/Nc2ncnc3sc4c(c23)CCCC4)cc1	4.69	4.88	1.6	> 250		3.85	5.77	85.2	18.7	12.8	14.6	8.4	> 170	15.1	6.7		pIC50 (Leishmania amazonensis [8]): < 4.52; pIC50 (Leishmania braziliensis): 4.76; pIC50 (Leishmania peruviana): < 4.52; Activity (Leishmania amazonensis [9]): 3.6 mm; Activity (Leishmania amazonensis [10]): 5.2 mm; Activity (Leishmania amazonensis [11]): 46%; Activity (Leishmania amazonensis [12]): 25%
O=C(Cn1ccnc1[N+](=O)[O-])NCc1ccccc1																	Activity (Trypanosoma cruzi [14]): Active
FC(F)(F)c1ccccc1/C=N/Nc1ncnc2sc3c(c12)CCCC3	5.10	4.86	0.6	15.7 (≈ 5.91 µg/mL)	1.3	5.51	5.92	2.6	15.8	5.4	3.5	4.8	6.5	4.5	1.7	15.4 (≈ 5.8 µg/mL)	
COc1ccc(/C=N/Nc2ncnc3sc4c(c23)CCCC4)cc1	4.75	4.80	1.1	71.2 (≈ 24.1 µg/mL)	3.2	4.19	4.32	1.3	14.9	17.1	23.1	12.5	16.3	17.3	13.9	26.9 (≈ 9.1 µg/mL)	Ratio IC50 [16]: 8.4
FC(F)(F)c1ccc(/C=N/Nc2ncnc3sc4c(c23)CCCC4)cc1	5.10	4.98	0.8	16.2 (≈ 6.1 µg/mL)	5.5	5.09	5.70	4.1	10.8	15.3	14.8	5.4	16.9	7	6.6	15.9 (≈ 5.98 µg/mL)	Ratio IC50 [16]: 5.6
COc1cccc(/C=N/Nc2ncnc3sc4c(c23)CCCC4)c1	4.83	4.77	0.9	119 (≈ 40.4 µg/mL)	0.6	4.79	4.44	0.5	17.6	16.2	17.7	14.9	143	7.4	15.5		
C(=N\Nc1ncnc2sc3c(c12)CCCC3)/c1ccc[nH]1	5.47	4.64	0.1	20.8 (≈ 6.19 µg/mL)	0.6	5.01	5.00	1	2.2	1.7	4.6	0.4	2.5	3.8	1.9		
